The nature of test [1]: Paired comparison testing (2-AFC) of sweet intensity versus 300 ppm Rebaudioside A by trained panelists. Particulars: for Sample selected as sweeter by panelists, Total: LSB pH ~7.1; for Sweetness compared with 300 ppm Rebaudioside A (2-AFC): 0.25 mL sample, LSB pH ~7.1, 0% ethanol. In kind it is in vivo. As for the experimental part: Paired comparison tests (2-Alternative Forced Choice difference tests, i.e., 2-AFC) were used to determine sweet intensity equivalence between samples prepared with Rebaudioside A and the test sweet compound. Trained external panelists were used for the taste tests.
2-AFC tests, compound solutions were tested against 300 ppm Rebaudioside A to determine how they matched in sweet intensity. Panelists tasted both samples and indicated which sample was sweeter in each pair. Panelists rinsed their mouths with water prior to starting any test. Samples were presented to panelists in randomized, counterbalanced pairs and were labeled with 3-digit blinding codes. Panelists rinsed with water between samples as well as between pairs. There was a 90 second delay to clear the mouth of any tastes after each pair evaluation. Three replicates of each test were performed.
The 2-AFC data was analyzed to determine significant differences between 300 ppm Rebaudioside A and compound solutions using a probability table for a two-tailed test (alpha=0.05).
The paired comparison testing was performed using a 0.25 mL sample size, and all samples were made with Low Sodium Buffer (LSB) pH ˜7.1 and contain 0% ethanol.

The next test concerns the target T1, hT1R2/hT1R3 (Homo sapiens, UniProt Q7RTX0+Q8TE23).
T1 construct: expressed in transfected cells; parental cells lack the receptor
T1 sequence (Q8TE23 20-839): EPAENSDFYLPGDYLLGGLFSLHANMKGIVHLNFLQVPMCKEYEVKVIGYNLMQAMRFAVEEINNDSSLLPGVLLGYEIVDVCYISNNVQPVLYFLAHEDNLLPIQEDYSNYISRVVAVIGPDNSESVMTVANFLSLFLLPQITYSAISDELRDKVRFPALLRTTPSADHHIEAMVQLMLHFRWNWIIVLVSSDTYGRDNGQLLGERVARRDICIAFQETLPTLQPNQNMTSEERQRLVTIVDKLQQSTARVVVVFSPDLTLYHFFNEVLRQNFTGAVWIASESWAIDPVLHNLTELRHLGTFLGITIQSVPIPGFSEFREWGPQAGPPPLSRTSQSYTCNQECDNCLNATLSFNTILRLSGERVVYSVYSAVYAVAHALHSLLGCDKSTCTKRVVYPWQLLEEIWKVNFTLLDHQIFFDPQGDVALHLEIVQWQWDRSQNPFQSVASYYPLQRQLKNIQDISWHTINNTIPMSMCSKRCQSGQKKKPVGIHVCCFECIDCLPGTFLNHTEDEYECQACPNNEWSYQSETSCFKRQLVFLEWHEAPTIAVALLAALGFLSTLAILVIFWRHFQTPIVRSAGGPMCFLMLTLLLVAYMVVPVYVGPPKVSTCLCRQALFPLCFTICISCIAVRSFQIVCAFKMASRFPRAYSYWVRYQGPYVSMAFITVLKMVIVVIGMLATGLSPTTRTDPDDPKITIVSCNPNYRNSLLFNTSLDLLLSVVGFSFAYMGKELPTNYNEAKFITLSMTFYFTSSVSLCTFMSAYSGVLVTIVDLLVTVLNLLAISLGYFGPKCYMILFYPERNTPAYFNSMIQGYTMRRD
T1 sequence (Q7RTX0 21-852): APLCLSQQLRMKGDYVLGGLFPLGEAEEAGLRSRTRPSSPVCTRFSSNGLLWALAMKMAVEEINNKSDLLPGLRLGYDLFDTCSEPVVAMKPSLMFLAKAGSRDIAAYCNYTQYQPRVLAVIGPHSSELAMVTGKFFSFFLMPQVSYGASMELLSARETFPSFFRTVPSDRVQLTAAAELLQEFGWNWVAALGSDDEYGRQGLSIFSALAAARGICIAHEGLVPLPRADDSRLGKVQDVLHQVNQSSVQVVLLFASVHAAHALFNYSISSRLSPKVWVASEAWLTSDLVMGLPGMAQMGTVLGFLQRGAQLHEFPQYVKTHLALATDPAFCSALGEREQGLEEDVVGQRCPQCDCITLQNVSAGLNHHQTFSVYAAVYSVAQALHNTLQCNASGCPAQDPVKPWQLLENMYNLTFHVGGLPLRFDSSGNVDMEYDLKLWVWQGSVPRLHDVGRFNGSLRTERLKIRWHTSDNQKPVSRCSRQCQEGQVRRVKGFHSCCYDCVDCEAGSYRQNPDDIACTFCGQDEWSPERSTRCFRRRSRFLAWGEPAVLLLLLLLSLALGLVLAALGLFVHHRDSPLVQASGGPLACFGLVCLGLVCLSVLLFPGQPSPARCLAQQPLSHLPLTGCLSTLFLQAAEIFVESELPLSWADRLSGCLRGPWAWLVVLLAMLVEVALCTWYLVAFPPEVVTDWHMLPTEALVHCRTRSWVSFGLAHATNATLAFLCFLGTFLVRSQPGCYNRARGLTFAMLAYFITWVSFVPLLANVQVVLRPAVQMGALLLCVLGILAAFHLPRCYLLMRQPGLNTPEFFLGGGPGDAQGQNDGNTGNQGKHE
In words: HTS-Sweet: FLIPR calcium fluorometric imaging assay in cells stably expressing the human sweet taste receptor and a promiscuous G protein. The note with it: FLIPR, Fluo-4AM, 10 concentrations 0.4 μM to 200 μM in duplicates; read-out: Compound EC50s for hT1R2/hT1R3. In kind it is cell-based. The protocol:
Compound activity (EC50) was determined using an automated fluorometric imaging assay on a FLIPR instrument (Fluorometric […] Plate Reader, Molecular Devices, Sunnyvale, Calif.). Cell stably expressing the human sweet taste receptor and a promiscuous G protein were seeded into 384-well plates (at approximately 40,000 cells per well). Cells were grown for 24 hours at 37° C. Cells were then loaded with the calcium dye Fluo-4AM (Molecular Probes, Eugene, Oreg.), 4 μM in a phosphate buffered saline (D-PBS) (Invitrogen, Carlsbad, Calif.), for 1 hour at room temperature. After replacement with 25 μl D-PBS, stimulation was performed in the FLIPR instrument and at room temperature by the addition of 25 μl D-PBS supplemented with different stimuli at concentrations corresponding to twice the desired final level. Receptor activity was quantified by determining the maximal fluorescence increases (using a 480 nm excitation and 535 nm emission) after normalization to basal fluorescence intensity measured before stimulation.
For dose-responses analysis, stimuli were presented in duplicates at 10 different concentrations ranging from 0.4 μM to 200 μM. EC50 s were determined using a non-linear regression algorithm, where the Hill slope, bottom asymptotes and top asymptotes were allowed to vary.

Where [2] appears, read: 250 ppm Compound 18 vs 300 ppm Rebaudioside A, n = 36 (12 panelists × 3 reps), p-value 0.681.
Where [3] appears, read: 300 ppm Compound 18 vs 300 ppm Rebaudioside A, n = 42 (14 panelists × 3 reps), p-value 0.044.
[4] abbreviates: 300 ppm Compound 1 vs 300 ppm Rebaudioside A, n = 45 (15 panelists × 3 reps), p-value 0.072.

Structures are written as SMILES.

In the case of `C[C@H](CC[C@@H](O[C@@H]1O[C@H](CO)[C@@H](O)[C@H](O)[C@H]1O[C@@H]1O[C@H](CO)[C@@H](O)[C@H](O[C@@H]2O[C@H](CO)[C@@H](O)[C@H](O)[C@H]2O)[C@H]1O)C(C)(C)O)C1CC[C@@]2(C)C3CC=C4C(CC[C@H](O[C@@H]5O[C@H](CO)[C@@H](O)[C@H](O[C@@H]6O[C@H](CO)[C@@H](O)[C@H](O)[C@H]6O)[C@H]5O)C4(C)C)[C@]3(C)[C@H](O)C[C@]12C` (some centres unmarked) [Compound 18], the figures for the “Sample selected as sweeter by panelists, Total” value (“Sample selected as sweeter” for short) in test [1] (setting [2]) and in test [1] (setting [3]) were 20 and 28, respectively. In addition, the results for the “Sweetness compared with 300 ppm Rebaudioside A (2-AFC)” value in test [1] (test compound at 250 ppm) and in test [1] (test compound at 300 ppm) were “not significantly different in sweetness” and “significantly sweeter”, respectively.

For `C=C1C[C@@]23CC[C@H]4[C@@](C)(CCC[C@@]4(C)C(=O)O[C@@H]4O[C@H](CO)[C@@H](O)[C@H](O)[C@H]4O)[C@@H]2CC[C@]1(O[C@@H]1O[C@H](CO)[C@@H](O)[C@H](O[C@@H]2O[C@H](CO)[C@@H](O)[C@H](O)[C@H]2O)[C@H]1O[C@@H]1O[C@H](CO)[C@@H](O)[C@H](O)[C@H]1O)C3` [Rebaudioside A, reference compound], the “Sample selected as sweeter” value in test [1] (setting [2]) came to 16; in test [1] (setting [4]) it was 29; in test [1] (setting [3]), 14.

Consider `C[C@H](CC[C@@H](O[C@@H]1O[C@H](CO)[C@@H](O[C@@H]2O[C@H](CO)[C@@H](O)[C@H](O)[C@H]2O)[C@H](O)[C@H]1O[C@@H]1O[C@H](CO)[C@@H](O)[C@H](O)[C@H]1O)C(C)(C)O)C1CC[C@@]2(C)C3CC=C4C(CC[C@H](O)C4(C)C)[C@]3(C)[C@H](O)C[C@]12C` (some centres unmarked) [Compound 35], for which, on hT1R2/hT1R3, the EC50 is 17 to 30 µM.

Take `C[C@H](CC[C@@H](O[C@@H]1O[C@H](CO)[C@@H](O)[C@H](O)[C@H]1O[C@@H]1O[C@H](CO)[C@@H](O)[C@H](O)[C@H]1O)C(C)(C)O)C1CC[C@@]2(C)C3CC=C4C(CC[C@H](O[C@@H]5O[C@H](CO)[C@@H](O[C@@H]6O[C@H](CO)[C@@H](O)[C@H](O)[C@H]6O)[C@H](O)[C@H]5O)C4(C)C)[C@]3(C)[C@H](O)C[C@]12C` (some centres unmarked) [Compound 1]: the “Sample selected as sweeter” value in test [1] (setting [4]) came to 16. In addition, the “Sweetness compared with 300 ppm Rebaudioside A (2-AFC)” value in test [1] (test compound at 300 ppm) is on record as “not significantly different in sweetness”.

`C[C@H](CC[C@@H](O[C@@H]1O[C@H](CO)[C@@H](O)[C@H](O)[C@H]1O[C@@H]1O[C@H](CO)[C@@H](O)[C@H](O)[C@H]1O)C(C)(C)O)C1CC[C@@]2(C)C3CC=C4C(CC[C@H](O[C@@H]5O[C@H](CO[C@H]6O[C@H](COC7O[C@H](CO)[C@@H](O)[C@H](O)[C@H]7O)[C@@H](O)[C@H](O)[C@H]6O)[C@@H](O)[C@H](O)[C@H]5O)C4(C)C)[C@]3(C)[C@H](O)C[C@]12C` (some centres unmarked) [Compound 33]: the EC50 at hT1R2/hT1R3 is greater than 30 µM.

Values taken from patent US11357246B2, “High intensity sweeteners” (Firmenich Incorporated, priority 2015, dated 2022).
